Key:
[1] = tested on: S24 tumors; assay: S24 tumors in NSG mice; format: in vivo, mouse; details: 100 mg/kg daily oral gavage
Description: BALB/c nude, NSG, and C57BL/6J mice were obtained from Tianjin Medical University. The housing temperature was controlled, ranging from 20.5–24 °C, and humidity was monitored but not controlled ranging from 30–70%. The 12-h daily light cycle was from 06:00 to 18:00. To generate a murine subcutaneous tumor model, PC3 and HSC2 cells were subcutaneously injected into the right lateral flank of 4- to 5-week-old male BALB/c nude mice. TMD8, CAL33, and S24 cells were subcutaneously injected into the right lateral flank of 4- to 5-week-old male NSG mice. When tumors reached a volume of 300–500 mm^3, they were excised, diced into 2 mm × 2 mm × 2 mm pieces, and implanted into the right flanks of BALB/c nude or NSG mice. Tumors were allowed to grow to a volume of 100 mm^3, and then the animals were randomly divided into several groups. Each group of five mice was treated with either vehicle or KTC1101 (25, 50, or 100 mg/kg, PO). Tumor size was measured every 3 d or 4 d until the endpoint. The tumor volume was calculated using the following formula: length × width × height/2. At the end of the experimental period, mice were euthanized by overdosing on pentobarbital sodium, and the tumors were removed. Tumor tissue was formalin-fixed and paraffin-embedded for histological analysis.

[2] = tested on: tumor cell lines; assay: Apoptosis analysis; format: cell-based, human; details: tested cell lines, 48 h
[3] = tested on: NCI-H522; assay: JFCR39 sulforhodamine B growth assay; format: cell-based; details: Homo sapiens, NCI-H522, 48 h
Description: (§1) JFCR39 drug discovery system was used to measure the growth inhibitory activities and identify the target of KTC1101. The JFCR39 panel consists of 39 cell lines seeded in 96-well plates. After 48-h treatment with KTC1101, cell growth was measured using the sulforhodamine B assay. […] The deviation of log GI50 for each cell line from the average log GI50 across the JFCR39 panel was plotted as a fingerprint. MG-MID (mean of Log GI50 values) represents the average log GI50 for all 39 cell lines. The most sensitive and least sensitive cell lines were identified by calculating the difference in their log GI50 values (Range) and the difference between the most sensitive cell line and the average GI50 on the JFCR39 panel (Delta). The fingerprint of KTC1101 was compared with the fingerprints of reference compounds in the database. The Pearson correlation coefficient (r) was calculated (n = 39).

[4] = tested on: OVCAR-4; assay: JFCR39 sulforhodamine B growth assay; format: cell-based; details: Homo sapiens, OVCAR-4, 48 h
Description: as §1

[5] = tested on: HCC2998; assay: JFCR39 sulforhodamine B growth assay; format: cell-based; details: Homo sapiens, HCC 2998; HCC2998, 48 h
Description: as §1

[6] = tested on: SNB-75; assay: JFCR39 sulforhodamine B growth assay; format: cell-based; details: Homo sapiens, SNB-75, 48 h
Description: as §1

[7] = tested on: HT-29; assay: JFCR39 sulforhodamine B growth assay; format: cell-based; details: Homo sapiens, HT-29, 48 h
Description: as §1

[8] = tested on: MDA-MB-231; assay: JFCR39 sulforhodamine B growth assay; format: cell-based; details: Homo sapiens, MDA-MB-231, 48 h
Description: as §1

[9] = tested on: KM-12; assay: JFCR39 sulforhodamine B growth assay; format: cell-based; details: Homo sapiens, KM12; KM-12, 48 h
Description: as §1

[10] = tested on: HCT-116; assay: JFCR39 sulforhodamine B growth assay; format: cell-based; details: Homo sapiens, HCT-116, 48 h
Description: as §1

[11] = tested on: A549; assay: JFCR39 sulforhodamine B growth assay; format: cell-based; details: Homo sapiens, A549, 48 h
Description: as §1

[12] = tested on: SNB-78; assay: JFCR39 sulforhodamine B growth assay; format: cell-based; details: Homo sapiens, SNB-78, 48 h
Description: as §1

[13] = tested on: RXF-631L; assay: JFCR39 sulforhodamine B growth assay; format: cell-based; details: Homo sapiens, 48 h
Description: as §1

[14] = tested on: NCI-H460; assay: JFCR39 sulforhodamine B growth assay; format: cell-based; details: Homo sapiens, NCI-H460, 48 h
Description: as §1

[15] = tested on: MKN74; assay: JFCR39 sulforhodamine B growth assay; format: cell-based; details: Homo sapiens, MKN-74; MKN74, 48 h
Description: as §1

[16] = tested on: DMS114; assay: JFCR39 sulforhodamine B growth assay; format: cell-based; details: Homo sapiens, DMS-114; DMS114, 48 h
Description: as §1

[17] = tested on: SF-539; assay: JFCR39 sulforhodamine B growth assay; format: cell-based; details: Homo sapiens, SF-539, 48 h
Description: as §1

[18] = tested on: OVCAR-3; assay: JFCR39 sulforhodamine B growth assay; format: cell-based; details: Homo sapiens, OVCAR-3, 48 h
Description: as §1

[19] = tested on: OVCAR-5; assay: JFCR39 sulforhodamine B growth assay; format: cell-based; details: Homo sapiens, OVCAR-5, 48 h
Description: as §1

[20] = tested on: OVCAR-8; assay: JFCR39 sulforhodamine B growth assay; format: cell-based; details: Homo sapiens, OVCAR-8, 48 h
Description: as §1

[21] = tested on: BSY-1; assay: JFCR39 sulforhodamine B growth assay; format: cell-based; details: Homo sapiens, BSY-1, 48 h
Description: as §1

[22] = tested on: DU-145; assay: JFCR39 sulforhodamine B growth assay; format: cell-based; details: Homo sapiens, DU-145, 48 h
Description: as §1

[23] = tested on: SK-OV-3; assay: JFCR39 sulforhodamine B growth assay; format: cell-based; details: Homo sapiens, SK-OV-3, 48 h
Description: as §1

[24] = tested on: SF-295; assay: JFCR39 sulforhodamine B growth assay; format: cell-based; details: Homo sapiens, SF-295, 48 h
Description: as §1

[25] = tested on: MCF-7; assay: JFCR39 sulforhodamine B growth assay; format: cell-based; details: Homo sapiens, MCF7; MCF-7, 48 h
Description: as §1

[26] = tested on: MKN45; assay: JFCR39 sulforhodamine B growth assay; format: cell-based; details: Homo sapiens, MKN-45; MKN45, 48 h
Description: as §1

[27] = tested on: MKN-B; assay: JFCR39 sulforhodamine B growth assay; format: cell-based; details: Homo sapiens, 48 h
Description: as §1

[28] = tested on: NCI-H226; assay: JFCR39 sulforhodamine B growth assay; format: cell-based; details: Homo sapiens, NCI-H226, 48 h
Description: as §1

[29] = tested on: LOX-IMVI; assay: JFCR39 sulforhodamine B growth assay; format: cell-based; details: Homo sapiens, 48 h
Description: as §1

For `COc1cc(N)cc2c1nc(C(F)F)n2-c1nc(N2CCCOCC2)nc(N2CCOCC2)n1` [KTC1101, 2-(difluoromethyl)-4-methoxy-1-(4-morpholino-6-(1,4-oxazepan-4-yl)-1,3,5-triazin-2-yl)-1H-benzo[d]imidazol-6-amine], the “time until tumors started to progress” value [1] was 10 days, the induction of apoptosis [2] was “did not observe a potent induction of apoptosis except HSC2 cell line” and the GI50 [3] was 10 nM. It also gave a GI50 [4] of 61.7 nM, a GI50 [5] of 36.3 nM and a GI50 [6] of 10 nM. The GI50 [7] was 61.7 nM, the GI50 [8] was 30.2 nM and the GI50 [9] was 178 nM. For the same molecule, the GI50 [10] was 31.6 nM, the GI50 [11] was 21.9 nM and the GI50 [12] was 22.9 nM. The GI50 [13] was 15.5 nM, the GI50 [14] was 10 nM and the GI50 [15] was 70.8 nM. The GI50 [16] was 10 nM, the GI50 [17] was 10 nM and the GI50 [18] was 15.8 nM. It also gave a GI50 [19] of 23.4 nM, a GI50 [20] of 30.9 nM and a GI50 [21] of 10 nM. The GI50 [22] was 23.4 nM, the GI50 [23] was 12.9 nM and the GI50 [24] was 14.8 nM. For the same molecule, the GI50 [25] was 10 nM, the GI50 [26] was 162 nM and the GI50 [27] was 28.8 nM. The GI50 [28] was 16.6 nM and the GI50 [29] was 17.4 nM.

From paper PMC10938783, “A novel pan-PI3K inhibitor KTC1101 synergizes with anti-PD-1 therapy by targeting tumor suppression and immune activation” (Molecular Cancer, 2024)
